According to the supplement of paper PMC13380429:

What was measured:
U2OS [1] = experiment: drug sensitivity score (DSS) for viability; higher = more toxic; extreme values may be limits of the assay; conditions: 72 h
Caco-2 [2] = experiment: as above; conditions: 72 h
Vero E6 [3] = experiment: as above; conditions: 72 h
HepG2 [4] = experiment: as above; conditions: 72 h
Calu-3 [5] = experiment: as above; conditions: 72 h
U2OS [6] = experiment: relative viability EC50 (midpoint between 100% and the lowest measured viability); higher = less toxic; conditions: 72 h
Caco-2 [7] = experiment: as above; conditions: 72 h
Vero E6 [8] = experiment: as above; conditions: 72 h
HepG2 [9] = experiment: as above; conditions: 72 h
Calu-3 [10] = experiment: as above; conditions: 72 h
U2OS [11] = experiment: cell viability relative to DMSO; higher = less toxic; conditions: 72 h
Caco-2 [12] = experiment: as above; conditions: 72 h
Vero E6 [13] = experiment: as above; conditions: 72 h
HepG2 [14] = experiment: as above; conditions: 72 h
Calu-3 [15] = experiment: as above; conditions: 72 h
[16] = tested on: A549-ACE2 infected with SARS-CoV-2; experiment: morphology score (similarity to uninfected cells); higher = more like uninfected cells; conditions: 24 h

Row | SMILES | drug sensitivity score (U2OS [1]) | drug sensitivity score (Caco-2 [2]) | drug sensitivity score (Vero E6 [3]) | drug sensitivity score (HepG2 [4]) | drug sensitivity score (Calu-3 [5]) | relative viability EC50 (U2OS [6]) | relative viability EC50 (Caco-2 [7]) | relative viability EC50 (Vero E6 [8]) | relative viability EC50 (HepG2 [9]) | relative viability EC50 (Calu-3 [10]) | cell viability (U2OS [11]; 1 nM) | cell viability (U2OS [11]; 10 nM) | cell viability (U2OS [11]; 100 nM) | cell viability (U2OS [11]; 1000 nM) | cell viability (U2OS [11]; 10000 nM) | cell viability (Caco-2 [12]; 1 nM) | cell viability (Caco-2 [12]; 10 nM) | cell viability (Caco-2 [12]; 100 nM) | cell viability (Caco-2 [12]; 1000 nM) | cell viability (Caco-2 [12]; 10000 nM) | cell viability (Vero E6 [13]; 1 nM) | cell viability (Vero E6 [13]; 10 nM) | cell viability (Vero E6 [13]; 100 nM) | cell viability (Vero E6 [13]; 1000 nM) | cell viability (Vero E6 [13]; 10000 nM) | cell viability (HepG2 [14]; 1 nM) | cell viability (HepG2 [14]; 10 nM) | cell viability (HepG2 [14]; 100 nM) | cell viability (HepG2 [14]; 1000 nM) | cell viability (HepG2 [14]; 10000 nM) | cell viability (Calu-3 [15]; 1 nM) | cell viability (Calu-3 [15]; 10 nM) | cell viability (Calu-3 [15]; 100 nM) | cell viability (Calu-3 [15]; 1000 nM) | cell viability (Calu-3 [15]; 10000 nM) | morphology score ([16]; 0.1 µM) | morphology score ([16]; 0.3 µM) | morphology score ([16]; 1 µM) | morphology score ([16]; 3 µM)
1 | O=C1CCC2CCC(=O)N12 [rolziracetam] | 0 | 0 | 0 | 0 | 0 | > 10 µM | > 10 µM | > 10 µM | > 10 µM | > 10 µM | 98% | 100% | 101% | 96.7% | 102% | 79.1% | 112% | 82.8% | 98.6% | 89.1% | 94.9% | 105% | 97.8% | 102% | 97.5% | 114% | 104% | 96.1% | 108% | 116% | 91% | 87% | 99.1% | 103% | 96.3% |  |  |  | 
2 | CCC(C)(C)C(=O)O[C@H]1C[C@@H](C)C=C2C=C[C@H](C)[C@H](CC[C@@H]3C[C@@H](O)CC(=O)O3)[C@H]21 [simvastatin] |  |  |  |  |  |  |  |  |  |  |  |  |  |  |  |  |  |  |  |  |  |  |  |  |  |  |  |  |  |  |  |  |  |  |  | 0.01 | 0.17 | 0.04 | -0.23
3 | C1CCN2C[C@@H]3C[C@@H](CN4CCCC[C@@H]34)[C@H]2C1 [sparteine-sulfate] | 0 | 2.6 | 0 | 0 | 0 | > 10 µM | > 10 µM | > 10 µM | > 10 µM | > 10 µM | 105% | 99.7% | 104% | 97.6% | 100% | 84.7% | 87.4% | 81.4% | 78.5% | 105% | 97.4% | 98.7% | 82.1% | 93.6% | 105% | 94.9% | 101% | 102% | 89% | 102% | 114% | 104% | 108% | 116% | 86.7% |  |  |  | 
4 | O=C(CCBr)N1CC[N+]2(CC1)CC[N+]1(CCN(C(=O)CCBr)CC1)CC2 [spirobromin] | 0 | 0 | 0 | 0 | 0 | > 10 µM | > 10 µM | > 10 µM | > 10 µM | > 10 µM | 96.4% | 95.2% | 97.3% | 99.4% | 97.7% | 103% | 87% | 94.2% | 109% | 108% | 91.2% | 101% | 96.4% | 91.5% | 106% | 91.7% | 91.5% | 96.6% | 106% | 96.4% | 110% | 100% | 94.7% | 110% | 100% |  |  |  | 
5 | Cc1cn([C@H]2C=C[C@@H](CO)O2)c(=O)[nH]c1=O [stavudine] | 0 | 0 | 0 | 0 | 0 | > 10 µM | > 10 µM | > 10 µM | > 10 µM | > 10 µM | 102% | 99.7% | 103% | 96.7% | 106% | 92.7% | 92.4% | 82.9% | 113% | 88.6% | 92.7% | 94.5% | 95.9% | 104% | 105% | 88.4% | 91.5% | 93.8% | 98.4% | 95% | 94.1% | 102% | 92.9% | 101% | 108% |  |  |  | 
6 | O=C(O)CCC(=O)O [succinic-acid] | 0 | 0 | 0 | 0 | 0 | > 10 µM | > 10 µM | > 10 µM | > 10 µM | > 10 µM | 95.5% | 102% | 97.7% | 102% | 101% | 92.2% | 89.7% | 86% | 94.8% | 93.5% | 104% | 96.6% | 95.5% | 98.4% | 104% | 110% | 100% | 110% | 101% | 99.8% | 97.2% | 105% | 98.5% | 101% | 97.5% |  |  |  | 
7 | CN[C@H](C(=O)N[C@H](C(=O)N(C)[C@H](/C=C(\C)C(=O)O)C(C)C)C(C)(C)C)C(C)(C)c1ccccc1 [taltobulin] | 36.3 | 29.8 | 33.4 | 35 | 24.3 | 0.0021 µM | 0.0011 µM | 0.0044 µM | 0.0012 µM | 0.0037 µM | 73.8% | 31.8% | 17.3% | 18.5% | 17.7% | 68.3% | 45.6% | 34.3% | 35% | 35.9% | 88.5% | 39.6% | 25.2% | 17.9% | 18.1% | 73.5% | 28.9% | 28.6% | 34.8% | 33.1% | 82.8% | 58.4% | 46.7% | 39.6% | 38.8% |  |  |  | 
8 | N=C1CCCN1Cc1[nH]c(=O)[nH]c(=O)c1Cl [tipiracil] | 0 | 0 | 0 | 0 | 0 | > 10 µM | > 10 µM | > 10 µM | > 10 µM | > 10 µM | 97.4% | 99% | 93.8% | 97.5% | 100% | 96.7% | 93.4% | 93.2% | 98.1% | 98.6% | 97.6% | 95.9% | 94.9% | 92.6% | 104% | 100% | 89.6% | 96.5% | 101% | 98.7% | 94.2% | 102% | 89.4% | 97.4% | 101% |  |  |  | 
9 | CCC[C@@]1(CCc2ccccc2)CC(O)=C([C@H](CC)c2cccc(NS(=O)(=O)c3ccc(C(F)(F)F)cn3)c2)C(=O)O1 [tipranavir] | 0 | 0 | 0 | 0 | 0 | > 10 µM | > 10 µM | > 10 µM | > 10 µM | > 10 µM | 100% | 99.4% | 100% | 104% | 101% | 98.5% | 97.1% | 93.6% | 103% | 93.1% | 104% | 102% | 100% | 102% | 105% | 94.8% | 103% | 93.6% | 103% | 93.9% | 107% | 98.1% | 102% | 109% | 118% |  |  |  | 
10 | c1ccc(CC2=NCCN2)cc1 [tolazoline] | 0 | 0 | 0 | 0 | 0 | > 10 µM | > 10 µM | > 10 µM | > 10 µM | > 10 µM | 99.9% | 97.9% | 102% | 101% | 101% | 103% | 93.1% | 97.5% | 95% | 98% | 108% | 111% | 104% | 106% | 98.6% | 97.3% | 102% | 101% | 108% | 99.9% | 103% | 103% | 87.3% | 98.4% | 114% |  |  |  | 
11 | Cc1cccc(N(C)C(=S)Oc2ccc3ccccc3c2)c1 [tolnaftate] | 0 | 0 | 0.1 | 0 | 0 | > 10 µM | > 10 µM | > 10 µM | > 10 µM | > 10 µM | 99.1% | 99.2% | 94.9% | 100% | 93.3% | 93.3% | 99.7% | 94% | 94.8% | 96.8% | 101% | 102% | 98.5% | 91.8% | 88.6% | 100% | 100% | 91.6% | 97.9% | 93.8% | 98% | 90% | 94% | 94.6% | 101% |  |  |  | 
12 | Cc1ccc(C(=O)C(C)CN2CCCCC2)cc1 (centres undefined) [tolperisone] | 0 | 0 | 0 | 0.1 | 0 | > 10 µM | > 10 µM | > 10 µM | > 10 µM | > 10 µM | 102% | 100% | 97.2% | 98.4% | 98.1% | 92.4% | 98.5% | 94.9% | 94.4% | 94.6% | 97.6% | 99.4% | 104% | 100% | 99.4% | 94.2% | 95% | 96.3% | 102% | 86.5% | 107% | 93.2% | 110% | 100% | 99.4% |  |  |  | 
13 | CC(=O)Oc1cc(C(F)(F)F)ccc1C(=O)O [triflusal] | 0 | 0 | 0 | 0 | 0 | > 10 µM | > 10 µM | > 10 µM | > 10 µM | > 10 µM | 96.2% | 102% | 99.5% | 97.9% | 101% | 96% | 106% | 90% | 98.4% | 103% | 99.4% | 96.9% | 97.7% | 100% | 94.5% | 90.6% | 90.5% | 92.1% | 101% | 111% | 98.6% | 97.9% | 93.5% | 92.2% | 103% |  |  |  | 
14 | CCOC(=O)N[C@@H]1CC[C@@H]2[C@@H](C1)C[C@H]1C(=O)O[C@H](C)[C@H]1[C@H]2/C=C/c1ccc(-c2cccc(F)c2)cn1 [vorapaxar] | 0 | 0.2 | 0 | 0 | 0 | > 10 µM | > 10 µM | > 10 µM | > 10 µM | > 10 µM | 102% | 98.7% | 102% | 102% | 89.1% | 90% | 93.2% | 103% | 105% | 83% | 92.5% | 103% | 99.8% | 92.7% | 105% | 105% | 112% | 100% | 99.9% | 94.3% | 98% | 95% | 102% | 94.3% | 99.9% |  |  |  | 
